Results on 3 molecules are retold here after patent US9067894B1, “Compound, composition, and method of activating GIRK potassium channel and use of same for treating conditions of interest” (Vanderbilt University, priority 2013, dated 2015).

One assay addresses T1, GIRK1/2 (Homo sapiens, UniProt P48051+P48549).
T1 sequence (P48549 1-501): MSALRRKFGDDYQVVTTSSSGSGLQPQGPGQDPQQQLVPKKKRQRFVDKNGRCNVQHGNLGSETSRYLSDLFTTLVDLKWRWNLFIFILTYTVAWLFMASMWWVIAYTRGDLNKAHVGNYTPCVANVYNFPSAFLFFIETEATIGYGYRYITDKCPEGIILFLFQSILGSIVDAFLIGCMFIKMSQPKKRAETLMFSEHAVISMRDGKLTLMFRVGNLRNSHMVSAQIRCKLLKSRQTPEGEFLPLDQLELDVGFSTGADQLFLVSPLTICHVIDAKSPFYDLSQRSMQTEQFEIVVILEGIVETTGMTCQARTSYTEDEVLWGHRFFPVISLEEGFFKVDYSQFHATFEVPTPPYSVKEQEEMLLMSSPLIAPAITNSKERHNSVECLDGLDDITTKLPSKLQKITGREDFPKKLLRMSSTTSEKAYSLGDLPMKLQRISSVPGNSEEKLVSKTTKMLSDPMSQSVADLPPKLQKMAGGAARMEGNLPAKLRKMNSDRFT
T1 sequence (P48051 1-423): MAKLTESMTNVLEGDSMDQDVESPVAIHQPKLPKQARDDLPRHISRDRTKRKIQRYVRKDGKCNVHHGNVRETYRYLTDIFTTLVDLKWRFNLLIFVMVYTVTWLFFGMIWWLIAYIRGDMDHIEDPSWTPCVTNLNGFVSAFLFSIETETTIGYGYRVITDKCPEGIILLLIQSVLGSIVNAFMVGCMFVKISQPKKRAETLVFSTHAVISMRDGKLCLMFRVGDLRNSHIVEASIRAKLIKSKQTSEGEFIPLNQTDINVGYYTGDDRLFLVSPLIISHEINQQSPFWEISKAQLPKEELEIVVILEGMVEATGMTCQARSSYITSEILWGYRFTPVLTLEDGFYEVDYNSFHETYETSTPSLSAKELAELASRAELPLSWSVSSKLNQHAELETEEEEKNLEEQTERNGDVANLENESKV
The assay is described as follows: Thallium flux, pertussis toxin-treated cells co-expressing mGlu8 and GIRK1/2. The format is cell-based. Details: host or cells: HEK-293. The following applies: 600 ng/ml pertussis toxin; VU0456810 10 μM, glutamate 100 μM. From the text: Cell Line Construction and Cell Culture. HEK-293 cells co-expressing human GIRK1/2 and rat mGlu8 were generated as previously described (Niswender et al., 2008). A HEK-293 cell line (ATCC, Manassas, Va.) expressing human GIRK1 and human GIRK2 was constructed by transfecting HEK-293 cells with GIRK1 and GIRK2 (Origene, Rockville, Md.) cloned into the pBudCE4.1 vector (Life Technologies, Carlsbad, Calif.) using FuGene 6 (Promega, Madison, Wis.) transfection reagent. Unless otherwise noted, other ion channel-expressing cells were prepared by transfecting HEK-293 cells with individual or combinations of subunits: GIRK1, pCMV6-A-BSD; GIRK2, pCMV6-A-puro; GIRK3, pCMV6-A-hygro; GIRK4, pCMV6-A-AC; Kv7.4, pIRESneo3. The Kir2.1 and hERG-expressing cell lines were made by transfecting T-REx-293 cells (Life Technologies, Carlsbad, Calif.) with Kir2.1 and Kv11.1, respectively, cloned into pcDNA5TO. Monoclonal cell lines were produced by limiting-dilution cloning of antibiotic-resistant cells and functional selection using the thallium flux assay described below. Unless otherwise noted, cells were maintained in Minimal Essential Medium, Alpha Medium (Mediatech, Manassas, Va.) supplemented with 10% fetal bovine serum (Sigma-Aldrich, Saint Louis, Mo.) and GlutaGro (Mediatech, Manassas, Va.), referred to henceforth as cell culture medium. […]

A further assay concerns GIRK. Particulars: read-out: potency / reported EC50 as GIRK activator; cited from earlier work.
Assay [1] is described as follows: Maximal electroshock (MES) model of epilepsy. The format is in vivo, mouse. The following applies: mice, i.p.; VU0456810 60 mg/kg, sodium valproate 150 mg/kg; vs vehicle. As to the method:
MES stimulation was applied, 30 minutes after injection, through transauricular (ear-clip) electrodes from an electroshock apparatus, HSE Shock Stimulator Type 221, (Harvard Apparatus, Holliston, Mass.) using the following parameters: 100-mA fixed current, a 50-60-Hz pulse frequency, a 0.6-ms pulse width and a 0.3-s stimulus duration. Animals were restrained by hand when applying the electrodes and released at the moment of stimulation to permit observation of the seizure throughout its entire course. Upon completion of the electrical stimulus, the amount of time until death was recorded. […] In this modified MES test, the electrical stimulus that was applied was sufficient to induce seizures and death from maximal seizure in 100% of the control mice.
(§1) In all cases, experiments were conducted in a blind manner with respect to the experimenters. Data were evaluated in Excel using one-tailed, unpaired Student's t-test, assuming populations with unequal variance.

Assay [2] is described as follows: Pentylenetetrazol (PTZ)-induced seizure model. The format is in vivo, mouse. The following applies: mice, i.p.; VU0456810 60 mg/kg, sodium valproate 150 mg/kg; PTZ 40 mg/kg; 20 minute timeframe. As for the experimental part: After thirty minutes, PTZ was administered intraperitoneally (i.p., 40 mg/kg). Immediately following administration of PTZ, the amount of time elapsed before the first occurrence of tremors, tonic-clonic seizures, convulsion, and death was recorded. All mice were subject to a 20-minute post-[…] cutoff.
as §1

Where “and” joins values, the source holds several entries; their conditions need not be identical. Equal values may be shown once.

In the case of `N[C@@H](CCC(=O)O)C(=O)O` [glutamate, reference compound], the “effect of pertussis toxin treatment on evoked thallium flux” value at GIRK1/2 is “abolishing”.

Turning to `C[C@@H]1O[C@@H](O[C@H]2[C@H](Oc3cc(O)c4c(c3)O[C@H](c3ccc(O)cc3)CC4=O)O[C@H](CO)[C@@H](O)[C@@H]2O)[C@H](O)[C@H](O)[C@H]1O` [naringin], the EC50 in the assay with GIRK was ~100 µM and > 100 µM.

Turning to `CCCC(CCC)C(=O)[O-].[Na+]` [sodium valproate, reference compound], the “latency of seizure onset” value in assay [1] is on record as “highly significant delays in seizure onset”. Further, in assay [2], the “animals experiencing convulsions from PTZ treatment” value was “significant decrease” and the “animals surviving PTZ treatment” value is on record as “significant increase”.
